Measured values from the NIST ThermoML archive (doi:10.1021/acs.jced.8b00879).
Numbers after ± are expanded uncertainties.

Assay: mn = molality of the nth substance listed, in mol/kg
Details: 85 kPa, Liquid; for viscosity: Capillary tube (Ostwald / Ubbelohde) method; for speed of sound: Frequency=3 MHz, Single path-length method; for mass density: Vibrating tube method

Question: Which results are given for `C[N+](C)(C)CCO.NCC(=O)[O-]` [2-hydroxy-N,N,N-trimethylethanaminium glycinate] + O?
Answer: viscosity (288.15 K, m1 = 0.0111): 1.251 ± 0.12 mPa·s; viscosity (288.15 K, m1 = 0.0214): 1.263 ± 0.12 mPa·s; viscosity (288.15 K, m1 = 0.0318): 1.275 ± 0.12 mPa·s; viscosity (288.15 K, m1 = 0.0417): 1.288 ± 0.12 mPa·s; viscosity (288.15 K, m1 = 0.0534): 1.302 ± 0.12 mPa·s; viscosity (288.15 K, m1 = 0.0619): 1.313 ± 0.12 mPa·s; speed of sound (288.15 K, m1 = 0.0111): 1468.1 ± 1.2 m/s; speed of sound (288.15 K, m1 = 0.0214): 1469.5 ± 1.2 m/s; speed of sound (288.15 K, m1 = 0.0318): 1470.8 ± 1.2 m/s; speed of sound (288.15 K, m1 = 0.0417): 1472.1 ± 1.2 m/s; speed of sound (288.15 K, m1 = 0.0534): 1473.6 ± 1.2 m/s; speed of sound (288.15 K, m1 = 0.0619): 1474.7 ± 1.2 m/s; mass density (288.15 K, m1 = 0.0111): 999.43 ± 0.32 kg/m3; mass density (288.15 K, m1 = 0.0214): 999.73 ± 0.32 kg/m3; mass density (288.15 K, m1 = 0.0318): 1000.03 ± 0.32 kg/m3; mass density (288.15 K, m1 = 0.0417): 1000.3 ± 0.32 kg/m3; mass density (288.15 K, m1 = 0.0534): 1000.63 ± 0.32 kg/m3; mass density (288.15 K, m1 = 0.0619): 1000.85 ± 0.32 kg/m3; viscosity (298.15 K, m1 = 0.0111): 1 ± 0.12 mPa·s; viscosity (298.15 K, m1 = 0.0214): 1.011 ± 0.12 mPa·s; viscosity (298.15 K, m1 = 0.0318): 1.02 ± 0.12 mPa·s; viscosity (298.15 K, m1 = 0.0417): 1.03 ± 0.12 mPa·s; viscosity (298.15 K, m1 = 0.0534): 1.042 ± 0.12 mPa·s; viscosity (298.15 K, m1 = 0.0619): 1.049 ± 0.12 mPa·s; speed of sound (298.15 K, m1 = 0.0111): 1498.2 ± 1.1 m/s; speed of sound (298.15 K, m1 = 0.0214): 1499.4 ± 1.1 m/s; speed of sound (298.15 K, m1 = 0.0318): 1500.6 ± 1.1 m/s; speed of sound (298.15 K, m1 = 0.0417): 1501.7 ± 1.1 m/s; speed of sound (298.15 K, m1 = 0.0534): 1503 ± 1.1 m/s; speed of sound (298.15 K, m1 = 0.0619): 1504 ± 1.2 m/s; mass density (298.15 K, m1 = 0.0111): 997.68 ± 0.32 kg/m3; mass density (298.15 K, m1 = 0.0214): 997.97 ± 0.32 kg/m3; mass density (298.15 K, m1 = 0.0318): 998.25 ± 0.32 kg/m3; mass density (298.15 K, m1 = 0.0417): 998.57 ± 0.32 kg/m3; mass density (298.15 K, m1 = 0.0534): 998.8 ± 0.37 kg/m3; mass density (298.15 K, m1 = 0.0619): 997.38 ± 0.48 kg/m3; viscosity (308.15 K, m1 = 0.0111): 0.832 ± 0.12 mPa·s; viscosity (308.15 K, m1 = 0.0214): 0.841 ± 0.12 mPa·s; viscosity (308.15 K, m1 = 0.0318): 0.851 ± 0.12 mPa·s; viscosity (308.15 K, m1 = 0.0417): 0.858 ± 0.12 mPa·s; viscosity (308.15 K, m1 = 0.0534): 0.869 ± 0.12 mPa·s; viscosity (308.15 K, m1 = 0.0619): 0.877 ± 0.12 mPa·s; speed of sound (308.15 K, m1 = 0.0111): 1521.1 ± 1.1 m/s; speed of sound (308.15 K, m1 = 0.0214): 1522.2 ± 1.1 m/s; speed of sound (308.15 K, m1 = 0.0318): 1523.2 ± 1.1 m/s; speed of sound (308.15 K, m1 = 0.0417): 1524.1 ± 1.1 m/s; speed of sound (308.15 K, m1 = 0.0534): 1525.2 ± 1.1 m/s; speed of sound (308.15 K, m1 = 0.0619): 1526 ± 1.2 m/s; mass density (308.15 K, m1 = 0.0111): 994.36 ± 0.33 kg/m3; mass density (308.15 K, m1 = 0.0214): 994.66 ± 0.33 kg/m3; mass density (308.15 K, m1 = 0.0318): 994.96 ± 0.32 kg/m3; mass density (308.15 K, m1 = 0.0417): 995.24 ± 0.32 kg/m3; mass density (308.15 K, m1 = 0.0534): 995.56 ± 0.32 kg/m3; mass density (308.15 K, m1 = 0.0619): 995.79 ± 0.39 kg/m3; viscosity (318.15 K, m1 = 0.0111): 0.706 ± 0.12 mPa·s; viscosity (318.15 K, m1 = 0.0214): 0.714 ± 0.12 mPa·s; viscosity (318.15 K, m1 = 0.0318): 0.722 ± 0.12 mPa·s; viscosity (318.15 K, m1 = 0.0417): 0.729 ± 0.12 mPa·s; viscosity (318.15 K, m1 = 0.0534): 0.737 ± 0.12 mPa·s; viscosity (318.15 K, m1 = 0.0619): 0.741 ± 0.12 mPa·s; speed of sound (318.15 K, m1 = 0.0111): 1536.9 ± 1.1 m/s; speed of sound (318.15 K, m1 = 0.0214): 1537.7 ± 1.1 m/s; speed of sound (318.15 K, m1 = 0.0318): 1538.6 ± 1.1 m/s; speed of sound (318.15 K, m1 = 0.0417): 1539.4 ± 1.1 m/s; speed of sound (318.15 K, m1 = 0.0534): 1540.5 ± 1.1 m/s; speed of sound (318.15 K, m1 = 0.0619): 1541.2 ± 1.1 m/s; mass density (318.15 K, m1 = 0.0111): 990.55 ± 0.33 kg/m3; mass density (318.15 K, m1 = 0.0214): 990.85 ± 0.33 kg/m3; mass density (318.15 K, m1 = 0.0318): 991.15 ± 0.33 kg/m3; mass density (318.15 K, m1 = 0.0417): 991.43 ± 0.32 kg/m3; mass density (318.15 K, m1 = 0.0534): 991.75 ± 0.32 kg/m3; mass density (318.15 K, m1 = 0.0619): 991.99 ± 0.32 kg/m3
